Assay results as given in patent US8614064B2, “Methods of diagnosing atherosclerosis by measuring ApoCI” (The Johns Hopkins University, priority 2003, dated 2013).

Experiments:
[1] = system: ABC-A1; assay: Western measurement of ABC transporter ABCA1 level in AoSMC; assay type: cell-based, human; conditions: ApoCI-treated cells
Method: (§1) Confluent cultures of AoSMC were preincubated with serum-free medium for 30 min and then treated with ApoCI (2.5 μg/ml medium), HMS (58.8 μg apoA-I/ml medium and 6.2 μg ApoCI/ml medium), and C2-Ceramide (30 μM). At indicated time periods cells were harvested in PBS and pellets lysed in 10 mM HEPES buffer (pH 7.4) 5 mM EDTA, 0.25 mM EGTA, 50 mM NaF, 0.35 M sucrose, 0.1% Nonidet P-40 and protease inhibitors 2 μg/ml aprotinin, 10 μg/ml leupeptin, 5 μg/ml pepstatin, and 1 mM PMSF. Protein concentration was determined using BCA-kit (Pierce, Rockford, Ill.). 100 μg of protein was subjected to electrophoresis in denaturing conditions on 4-15% polyacrylamide gel and electro transferred onto nitrocellulose (BioRad, Rochester, N.Y.). After the transfer, membranes were blocked for 1 h at room temperature in TBS-T/5% milk. Western assay was performed using rabbit caveolin-I (1:1000), SR-BI (1:5000) or goat ABCA1 (1:1000) primary antibody (Santa Cruz Biotechnology, Santa Cruz, Calif.) and horseradish peroxidase-conjugated anti-rabbit or anti-goat antibody (Amersham Pharmacia Biotech, Piscataway, N.J.). Blots were developed using ECL^plus Western blotting detection reagents (Amersham Pharmacia Biotech) and were scanned by laser densitometry. The intensity of the signals were quantified with the ImageGuant program (Molecular Dynamic, Sunnyvale, Calif.).

[2] = system: caveolin; assay: Western measurement of caveolin-I level in AoSMC; assay type: cell-based, human; conditions: ApoCI-treated cells
Method: as §1

Apolipoprotein C-I (TPDVSSALDKLKEFGNTLEDKARELISRIKQSELSAKMREWFSETFQKVKEKLKIDS; UniProt P02654 27-83, looked up) [ApoCI, 6.6-kDa single-chain plasma protein of 57 amino acids; purified human ApoCI purchased from Academy Bio-Medical Company]
cellular level of the ATP binding cassette (ABC-A1) protein [1]: transiently and significantly decreased | level of caveolin [2]: did not alter
